The target of the test is T1, human KDELR1 (Homo sapiens, UniProt P24390).
T1 construct: expressed in transfected cells; host or cells: COS-7
Put plainly: ER retrieval assay, WT KDELR1-GFP. The class given is cell-based. The settings on record: COS-7 cells, WT human KDEL receptor-GFP with mScarlet ligand. The source says:
To create KDELR1-GFP and KDELR2-GFP, the reading frames for Homo sapiens KDELR1 (Uniprot: P24390) and KDELR2 (Uniprot: P33947) were cloned into the pEF5/FRT low level mammalian expression vector with a C-terminal 20 amino acid linker made up of 5 copies of Gly-Ser-Ser-Ser followed by GFP. Specific point mutations were introduced using the Quickchange protocol (Stratagene) and are described in the key resources table and figures. To create the mScarlet-KDEL^sec ligand construct, mScarlet with an N-terminal hGH signal peptide and the 16 C-terminal residues of human BiP at its C-terminus, containing the KDEL signal, was cloned into the pcDNA3.1 vector. […] The Golgi marker protein TGN46 was detected by antibody (sheep anti-TGN46 AHP500G; AbD Serotec) and an Alexa 647 conjugated secondary anti-sheep secondary (A-21448, Invitrogen). In Figure 1d and e, endogenous KDELR was detected by antibody (mouse anti-KDELR ADI-VAA-PT048; Enzo Life Sciences) and Alexa 488 conjugated anti-mouse secondary antibody (A-21202, Invitrogen). For retrieval assays in other figures, KDELR-GFP fusion proteins were directly detected by fluorescence. The mScarlet-xDEL fusion proteins were directly detected by fluorescence. […] The fraction of KDEL receptor in the Golgi apparatus was calculated by dividing the Golgi signal by the total cell signal. […]

T1 sequence (P24390 whole entry): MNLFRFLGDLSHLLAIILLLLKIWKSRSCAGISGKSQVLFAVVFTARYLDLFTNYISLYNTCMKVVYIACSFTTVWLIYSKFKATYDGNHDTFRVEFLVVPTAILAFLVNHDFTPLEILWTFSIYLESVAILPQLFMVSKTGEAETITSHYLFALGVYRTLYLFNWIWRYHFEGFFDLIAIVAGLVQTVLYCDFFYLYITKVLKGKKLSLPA

In the case of “ADEL [pcDNA3.1 hGHss-mScarlet-H. sapiens BiP639-654K651A (ADEL^SEC), secreted mScarlet fusion with human BiP C-terminus, ADEL signal]”, the “ligand-induced receptor retrieval to the ER (in words)” value is listed as “does not activate”.

These data come from publication PMC8248988, “A signal capture and proofreading mechanism for the KDEL-receptor explains selectivity and dynamic range in ER retrieval” (eLife, 2021).
